Measured values: paper PMC7830758, “Revisiting the Rate-Limiting Step of the ANS–Protein Binding at the Protein Surface and Inside the Hydrophobic Cavity” (Molecules, 2021)

Tests used:
[1] = molecular target: T1, bovine serum albumin (BSA) (Bos taurus, UniProt P02769); assay: ANS fluorescence titrated with protein, MCR-ALS scores, one-site fit; format: binding; conditions: read-out: K (converted)
T1 construct: gene ALB

[2] = molecular target: T2, lysozyme (Gallus gallus, UniProt P00698); assay: as above; format: binding; conditions: read-out: K (converted)
T2 construct: gene LYZ
T2 sequence (P00698 19-147): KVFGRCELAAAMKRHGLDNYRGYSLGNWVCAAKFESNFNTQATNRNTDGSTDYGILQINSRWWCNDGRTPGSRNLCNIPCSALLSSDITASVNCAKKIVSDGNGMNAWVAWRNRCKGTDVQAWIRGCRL

T1 sequence (P02769 25-607): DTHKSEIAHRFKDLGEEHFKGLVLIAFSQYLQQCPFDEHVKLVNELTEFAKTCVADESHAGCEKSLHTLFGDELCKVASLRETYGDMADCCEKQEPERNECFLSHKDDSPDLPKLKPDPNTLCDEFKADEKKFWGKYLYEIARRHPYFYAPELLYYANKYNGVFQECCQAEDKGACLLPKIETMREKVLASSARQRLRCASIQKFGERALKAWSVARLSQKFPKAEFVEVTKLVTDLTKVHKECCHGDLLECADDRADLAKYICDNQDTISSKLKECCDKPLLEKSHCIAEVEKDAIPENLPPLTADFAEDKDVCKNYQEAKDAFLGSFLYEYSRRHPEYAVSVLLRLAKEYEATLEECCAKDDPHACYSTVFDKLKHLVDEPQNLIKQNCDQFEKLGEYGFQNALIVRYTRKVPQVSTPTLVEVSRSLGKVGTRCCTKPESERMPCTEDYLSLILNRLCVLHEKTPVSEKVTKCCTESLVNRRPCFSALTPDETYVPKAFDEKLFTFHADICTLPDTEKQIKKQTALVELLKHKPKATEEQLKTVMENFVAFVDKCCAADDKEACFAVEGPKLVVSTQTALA

O=S(=O)(O)c1cccc2cccc(Nc3ccccc3)c12 [8-Anilino-1-naphthalenesulfonic acid]
Kd [1]: 1.06 µM | Kd [2]: 172 µM
